Measurements published in US20090118285A1, “USE OF KCNQ-OPENERS FOR TREATING OR REDUCING THE SYMPTOMS OF SCHIZOPHRENIA” (H. Lundbeck A/S, priority 2006, published 2009).

Tests used:
KCNQ channels = details: Wuttke et al. 2005; cited from earlier work
[1] = test system: amphetamine-induced hyperactivity in the rat; assay: Amphetamine challenge: d-amphetamine induced hyperactivity in rats; assay type: in vivo; details: test substance s.c. 30 min before d-amphetamine sulphate 0.5 mg/kg, motility 2 hours, read-out: Amphetamine antagonism ED50 ± std. dev.
Text: D-amphetamine administration to rodents stimulates an increase in locomotor activity via mesolimbic dopamine receptors in the nucleus accumbens. While psychostimulant psychosis may not model all forms of schizophrenia, it may have applicability to paranoid schizophrenia and non-schizophrenic psychotic disorders (Krystal et al. pp. 214-224 in Neurobiology of Mental Illness ISBN 0-19-511265-2). It is believed that inhibition of the amphetamine-induced increase in locomotor activity is a reliable method for the evaluation of compounds with an antipsychotic potential (Ögren et al., European J. Pharmacol. 1984, 102, 459-464). In the following experiment, it was tested if the inhibition of spontaneous DA neurons in the mesolimbic circuit that was assessed above, could be translated into behavioral antipsychotic endpoint.
Subjects. Male Wistar rats (Taconic, Denmark) weighing 170-240 g are used. The animals were housed under a 12-hr light/dark cycle under controlled conditions for regular in-door temperature (21±2° C.) and humidity (55±5%) with food and tap water available ad libitum. Eight rats were used at each dose level and in the parallel control group receiving the vehicle to the test compound plus d-amphetamine and the group receiving vehicle injections only.

DA neurons in the VTA = assay: Spontaneous DA cell firing in the VTA of anaesthetised rats (in vivo electrophysiology); parameters: species or system rat; details: mean ± SEM
Text: In the mesolimbic system, all clinically used neuroleptics initially increase the firing rate of dopaminergic neurons (Tung et al., 1991, J. Neural Transm. Gen Sect., 84(1-2), 53-64,). After chronic administration, such neuroleptics eventually (after 3-4 weeks of treatment) decrease the firing rate to below pre-treatment levels (Skarsfeldt 1992, Synapse, 10, 25-33; White and Wang 1983, Science, 221, 1054-1057). This inhibitory effect on dopaminergic neurones, which is believed to be mediated by a depolarization blockade, is thought to be of therapeutic significance to the antipsychotic effect of neuroleptics (Grace and Bunney 1986, J. Pharmacol. Exp. Ther. 238, 1092-1100). […] The presence of KCNQ subunits on DA neurons in the VTA in rodents is well-documented but their functionality is unknown (Saganich et al. 2001, J. Neurosci. 21(13)4609-4624; Cooper et al. 2001, J. Neurosci., 21(24)9529-9540).
Subjects. Male Wistar rats (Harlan, The Netherlands) weighing 270-340 g were used. The animals were housed under a 12-hr light/dark cycle under controlled conditions for regular in-door temperature (21±2° C.) and humidity (55±5%) with food and tap water available ad libitum.
Experimental procedure. The rats were anaesthetised with an intraperitoneal injection of chloral hydrate (400 mg/kg). A femoral vein catheter was then inserted for supplementary anaesthetic injections (100 mg/kg) and drug administration. Animals were then mounted in a stereotaxic frame, the skull was exposed, and a hole (0.5×0.5 cm) was drilled above the ventral tegmental area. Extracellular single-cell recordings were performed using electrodes pulled from glass capillaries and filled with 2% Pontamine Sky Blue in 2 M NaCl. The tip of the electrode was broken under microscopic control, yielding an impedance of 2.0-8.0 MΩ at 135 Hz. The electrode was then lowered into the brain, using a hydraulic microdrive, aimed at the following coordinates: 5.5-5.0 mm posterior to Bregma; 0.5-0.9 mm lateral to the midline. Extracellular action potentials were amplified, discriminated and monitored on an oscilloscope and an audiomonitor. Discriminated spikes were collected and analysed using Spike 2 software (Cambridge Electronic Design Ltd., Cambridge, UK) on a PC-based system connected to a CED 1401 interface unit (Cambridge Electronic Design Ltd.). Presumed dopaminergic neurons were typically found 7.0-8.5 mm beneath the brain surface and were characterised by (1) a slow and irregular firing pattern (0.5-10 Hz), and (2) triphasic action potentials with a predominant positive component, a negative component followed by a minor positive component, with an overall duration >2.5 ms (Bunney et al. 1973, J. Pharmacol. Exp. Ther., 185, 560-571.).
Administration of compounds. […] These i.v. doses match the s.c. dose range of 0-10 mg/kg.
Statistical analysis. Drug effects were assessed by statistical comparison of the mean firing rate calculated from the 2-3 min period immediately before the first drug administration (baseline) to the mean firing rate calculated from at least 60 s at the maximal drug effect. Data were analysed statistically by a one-way ANOVA followed by Student-Newman-Keuls posthoc test. A p-value less than 0.05 was considered significant.

anticonvulsant tests = details: oral and intraperitoneal administration, rats and mice (Rostock et al. 1996); cited from earlier work
in vivo = details: Wistar, rat, sc
[2] = test system: K(+) current in neuronal cells; details: cited from earlier work
[3] = test system: DA levels in the nucleus accumbens; assay: Microdialysis: DA levels in the nucleus accumbens of freely moving rats; assay type: in vivo, rat; details: no amphetamine provocation, data not shown

SMILES: CCOC(=O)Nc1ccc(NCc2ccc(F)cc2)cc1N
- Binding to KCNQ channels (KCNQ channels): bind to KCNQ channels
- ED50 [1]: 2.3 mg/kg
- Spontaneous DA cell firing rate (DA neurons in the VTA; cumulated dose 0.3 mg/kg i.v.): 95.4 ± 5.0 (4) percentage of baseline firing rate
- Spontaneous DA cell firing rate (DA neurons in the VTA; cumulated dose 1.0 mg/kg i.v.): 90.5 ± 4.6 (5) percentage of baseline firing rate
- Spontaneous DA cell firing rate (DA neurons in the VTA; cumulated dose 2.0 mg/kg i.v.): 81.1 ± 5.1 (5) percentage of baseline firing rate
- Spontaneous DA cell firing rate (DA neurons in the VTA; cumulated dose 4.0 mg/kg i.v.): 67.1 ± 3.7 (4) percentage of baseline firing rate
- Spontaneous DA cell firing rate (DA neurons in the VTA; cumulated dose 6.0 mg/kg i.v.): 60.6 ± 0.7 (2) percentage of baseline firing rate
- Activity in a range of anticonvulsant tests (anticonvulsant tests): active after oral and intraperitoneal administration in rats and mice in a range of anticonvulsant tests
- ED50 at 2 h (in vivo): > 8.1 mg/kg
- Activation of a K(+) current [2]: activate a K(+) current in neuronal cells
- Effect on basal extracellular DA level in the nucleus accumbens [3]: merely provoked levels of DA were affected, but not basal levels of DA
